Assay results reported in US20250171462A1 (NICO Therapeutics, Inc., priority 2022, published 2025).
Like-named read-outs stand apart in the source and are kept apart here.

Biological target: T1, full-length SARM1 (FL-SARM1) (Homo sapiens, UniProt Q6SZW1)
T1 sequence (Q6SZW1 28-724): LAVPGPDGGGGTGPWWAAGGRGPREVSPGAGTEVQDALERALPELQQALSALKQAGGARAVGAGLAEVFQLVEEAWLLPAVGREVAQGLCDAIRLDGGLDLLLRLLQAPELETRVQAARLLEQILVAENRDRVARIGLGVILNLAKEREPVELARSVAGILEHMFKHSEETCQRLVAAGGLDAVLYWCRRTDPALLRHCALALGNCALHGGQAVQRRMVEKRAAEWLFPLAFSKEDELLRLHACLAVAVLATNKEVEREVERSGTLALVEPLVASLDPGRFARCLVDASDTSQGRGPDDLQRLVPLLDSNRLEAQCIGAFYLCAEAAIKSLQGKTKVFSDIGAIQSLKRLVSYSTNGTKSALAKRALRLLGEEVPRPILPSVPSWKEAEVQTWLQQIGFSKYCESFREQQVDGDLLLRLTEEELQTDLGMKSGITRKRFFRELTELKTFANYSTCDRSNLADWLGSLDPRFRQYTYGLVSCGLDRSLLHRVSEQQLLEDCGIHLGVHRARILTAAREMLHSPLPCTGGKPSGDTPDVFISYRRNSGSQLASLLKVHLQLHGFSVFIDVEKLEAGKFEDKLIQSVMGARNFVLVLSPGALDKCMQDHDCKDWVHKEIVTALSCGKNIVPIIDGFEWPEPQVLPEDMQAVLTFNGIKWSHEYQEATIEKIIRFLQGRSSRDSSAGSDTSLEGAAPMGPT
Assay: FL-SARM1 cellular lysate assay (NAD/NADH-Glo detection of remaining NAD+, NMN-activated)

[1] = Activity (IC50 class), 11 point curve
[2] = Activity (μM) (IC50), 11 point curve
[3] = read-out: Activity (IC50 class), 11 point curve

Compound | IC50 [1] [µM] | IC50 [2] [µM] | IC50 [3] [µM]
Cc1ccc(NC(=O)[C@@H]2C[C@@H]2c2ccccc2)cc1-c1cccnn1 [Example 299, (1R,2S)-N-(4-methyl-3-pyridazin-3-ylphenyl)-2-phenylcyclopropane-1-carboxamide] | > 10 | 14 | 
Cc1ccc(NC(=O)N2C3CC2c2ncnn2C3)cc1-c1ccccn1 (stereo not drawn) [Example 80, N-(4-methyl-3-pyridin-2-ylphenyl)-3,5,6,9-tetrazatricyclo[6.1.1.02,6]deca-2,4-diene-9-carboxamide] | > 10 | 13 | 
Cc1ccc(NC(=O)N2CCC[C@@H]2c2ccccc2)cc1-c1ccccn1 [Example 95, (2R)-N-(4-methyl-3-pyridin-2-ylphenyl)-2-phenylpyrrolidine-1-carboxamide] | 1 to 10 | 1.4 | 
Cc1ccc(NC(=O)C2C3CCC2CC3)cc1-c1cccnn1 (stereo not drawn) [Example 103, N-(4-methyl-3-pyridazin-3-ylphenyl)bicyclo[2.2.1]heptane-7-carboxamide] |  | 0.5 | 0.0001 to 1
CCO[C@@H]1CC2C[C@H](C1)N2C(=O)Nc1ccc(C)c(-c2ccccn2)c1 [Example 84, cis-3-ethoxy-N-(4-methyl-3-(pyridin-2-yl)phenyl)-6-azabicyclo[3.1.1]heptane-6-carboxamide] | 1 to 10 | 1.6 | 
Cc1ccc(NC(=O)N2CCCC3C2C3C(F)(F)F)cc1-c1ccccn1 (mixture of isomers) [Example 98, N-(4-methyl-3-pyridin-2-ylphenyl)-7-(trifluoromethyl)-2-azabicyclo[4.1.0]heptane-2-carboxamide] | > 10 | 20 | 
CC(=O)N1C[C@H](c2ccccc2)C[C@@H]1C(=O)Nc1ccc(C)c(-c2ncc(F)cn2)c1 [Example 321] | > 10 | 24 | 
Cc1ccc(NC(=O)C2COC(C)(C)CN2c2ncccn2)cc1-c1ncccn1 (single isomer, unassigned) [Example 207, 6,6-dimethyl-N-(4-methyl-3-(pyrimidin-2-yl)phenyl)-4-(pyrimidin-2-yl)morpholine-3-carboxamide] | > 10 | > 50 | 
Cc1ccc(NC(=O)[C@@H]2C[C@@H]3C[C@@H]3N2c2ncccn2)cc1-c1ncc(F)cn1 [Example 268, (1S,3S,5S)-N-[3-(5-fluoropyrimidin-2-yl)-4-methylphenyl]-2-pyrimidin-2-yl-2-azabicyclo[3.1.0]hexane-3-carboxamide] | > 10 | 33 | 
Cc1ccc(NC(=O)[C@H]2C[C@@H]3C[C@@H]3N2c2ncccn2)cc1-c1ncc(F)cn1 [Example 269, (1S,3R,5S)-N-[3-(5-fluoropyrimidin-2-yl)-4-methylphenyl]-2-pyrimidin-2-yl-2-azabicyclo[3.1.0]hexane-3-carboxamide] | > 10 | 47 | 
Cc1ccc(NC(=O)[C@H]2C[C@H]3C[C@H]3N2c2nccnn2)cc1-c1ncc(F)cn1 [Example 262, (1R,3R,5R)-N-(3-(5-fluoropyrimidin-2-yl)-4-methylphenyl)-2-(1,2,4-triazin-3-yl)-2-azabicyclo[3.1.0]hexane-3-carboxamide] | 1 to 10 | 2.5 | 
Cc1cc(F)c(NC(=O)[C@@H]2CC2(F)F)cc1-c1ccccn1 (stereo in doubt) [Example 143, 2,2-difluoro-N-(2-fluoro-4-methyl-5-pyridin-2-ylphenyl)cyclopropane-1-carboxamide] | 1 to 10 | 1.8 | 
Cc1ccc(NC(=O)OCCc2ccccc2)cc1-c1ncccn1 [Example 178, Phenethyl(4-methyl-3-(pyrimidin-2-yl)phenyl)carbamate] | 1 to 10 | 4.3 | 
Cc1cnc(-c2cc(NC(=O)N3C4C[C@@H](C)C[C@H]3C4)c(F)cc2C)nn1 [Example 239, cis-N-[2-fluoro-4-methyl-5-(6-methyl-1,2,4-triazin-3-yl)phenyl]-3-methyl-6-azabicyclo[3.1.1]heptane-6-carboxamide] |  | 0.2 | 0.0001 to 1
Cc1ccc(NC(=O)N2C3CC(C)CC2(C(C)O)C3)cc1-c1ncc(F)cn1 (single isomer, unassigned) [Example 193, cis-N-(3-(5-fluoropyrimidin-2-yl)-4-methylphenyl)-1-(1-hydroxyethyl)-3-methyl-6-azabicyclo[3.1.1]heptane-6-carboxamide] |  | 0.1 | 0.0001 to 1
O=C(Nc1ccc(C(F)F)c(-c2ccccn2)c1)[C@@H]1CC1(F)F [Example 126, (1S)-N-[4-(difluoromethyl)-3-pyridin-2-ylphenyl]-2,2-difluorocyclopropane-1-carboxamide] | 1 to 10 | 2.5 | 
Cc1ccc(NC(=O)N2CCCC3CC32)cc1-c1ccccn1 (stereo not drawn) [Example 99, N-(4-methyl-3-pyridin-2-ylphenyl)-2-azabicyclo[4.1.0]heptane-2-carboxamide] | > 10 | 18 | 
C[C@@H]1CC2C[C@H](C1)N2C(=O)Nc1ccc(Br)c(-c2nccnn2)c1 [Example 315] |  | 0.08 | 0.0001 to 1
Cc1ccc(NC(=O)N2[C@@H]3C[C@H](C)C[C@H]2C3)cc1-c1ccccn1 [Example 10, trans-3-Methyl-N-(4-methyl-3-(pyridin-2-yl)phenyl)-6-azabicyclo[3.1.1]heptane-6-carboxamide] |  | 0.01 | 0.0001 to 1
CC1CCCCCN1C(=O)Nc1ccc(C(F)(F)F)c(-c2ncc(F)cn2)c1 (racemic) [Example 312, N-(3-(5-fluoropyrimidin-2-yl)-4-(trifluoromethyl)phenyl)-2-methylazepane-1-carboxamide] | 1 to 10 | 1.4 | 
Cc1ccc(NC(=O)C2CC3CC[C@@H]2C3)cc1-c1ccccn1 (single isomer, unassigned) [Example 140] |  | 0.9 | 0.0001 to 1
Cc1ccc(NC(=O)N2CCCC2c2ccnn2C)cc1-c1ccccn1 (racemic) [Example 89, 2-(2-methylpyrazol-3-yl)-N-(4-methyl-3-pyridin-2-ylphenyl)pyrrolidine-1-carboxamide] | > 10 | 12 | 
Cc1ccc(NC(=O)N2C3CC2CN(c2ccn(C)n2)C3)cc1-c1ccccn1 [Example 85, 3-(1-methylpyrazol-3-yl)-N-(4-methyl-3-pyridin-2-ylphenyl)-3,6-diazabicyclo[3.1.1]heptane-6-carboxamide] | > 10 | 23 | 
Cc1ccc(NC(=O)CC2CCC2)cc1-c1ccccn1 [Example 168, 2-cyclobutyl-N-(4-methyl-3-pyridin-2-ylphenyl)acetamide] | 1 to 10 | 1.3 | 
C[C@@H]1CC2C[C@H](C1)N2C(=O)Nc1ccc(Cl)c(-c2cccnn2)c1 [Example 64, cis-N-(4-chloro-3-pyridazin-3-ylphenyl)-3-methyl-6-azabicyclo[3.1.1]heptane-6-carboxamide] |  | 0.1 | 0.0001 to 1
Cc1ccc(NC(=O)N2C3C[C@@H](C)C[C@H]2C3)cc1-c1nccc(OC(F)F)n1 [Example 233, cis-N-[3-[4-(difluoromethoxy)pyrimidin-2-yl]-4-methylphenyl]-3-methyl-6-azabicyclo[3.1.1]heptane-6-carboxamide] |  | 0.1 | 0.0001 to 1
Cc1ccc(NC(=O)C2CC(C(F)(F)F)C2)cc1-c1ccccn1 (mixture of isomers) [Example 130, N-(4-methyl-3-pyridin-2-ylphenyl)-3-(trifluoromethyl)cyclobutane-1-carboxamide] | 1 to 10 | 2.6 | 
